# Reference: patent publication US20110053910A1, “2 -HETEROCYCLYLOXYBENZOYL AMINO HETEROCYCLYL COMPOUNDS AS MODULATORS OF GLUCOKINASE FOR THE TREATMENT OF TYPE 2 DIABETES” (priority 2005, published 2011)
# Experiments:
# Zucker obese fa/fa rats = assay: Oral Glucose Tolerance Test (OGTT); type: in vivo, rat; settings: 10 mg/kg, given orally 120 minutes before glucose 2 g/kg; Zucker obese fa/fa rats on high fat diet; vehicle-control AUC = zero percent
# Experimental: Oral glucose tolerance tests were done on conscious Zucker obese fa/fa rats (age 12-13 weeks or older) fed a high fat diet (45% kcal fat) for at least two weeks prior to experimentation. The animals were fasted for 2 hours before use for experiments. A test compound or a vehicle was given orally 120 minutes before oral administration of a glucose solution at a dose of 2 g/kg body weight. Blood glucose levels were measured using a Accucheck glucometer from tail bled samples taken at different time points before and after administration of glucose (time course of […]). A time curve of the blood glucose levels was generated and the area-under-the-curve (AUC) for 120 minutes was calculated (the time of glucose administration being time zero). Percent reduction in glucose excursion was determined using the AUC in the vehicle-control group as zero percent reduction.
# [1] = target: T1, recombinant human pancreatic GLK (Homo sapiens, UniProt P35557); assay: biochemical
# T1 sequence (P35557 1-465): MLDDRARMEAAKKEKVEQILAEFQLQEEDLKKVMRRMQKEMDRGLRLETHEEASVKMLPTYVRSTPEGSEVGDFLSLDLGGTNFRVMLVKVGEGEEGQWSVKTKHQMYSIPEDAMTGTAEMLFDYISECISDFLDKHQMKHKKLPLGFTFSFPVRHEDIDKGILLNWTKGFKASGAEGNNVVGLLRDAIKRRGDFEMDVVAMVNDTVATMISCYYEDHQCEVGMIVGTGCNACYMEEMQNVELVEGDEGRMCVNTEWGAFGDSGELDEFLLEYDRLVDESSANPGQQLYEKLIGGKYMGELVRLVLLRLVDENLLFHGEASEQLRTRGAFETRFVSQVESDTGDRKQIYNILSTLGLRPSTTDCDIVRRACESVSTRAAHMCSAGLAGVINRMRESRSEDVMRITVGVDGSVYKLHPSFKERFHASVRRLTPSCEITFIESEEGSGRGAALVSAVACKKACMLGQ
smiles,measurement,setting,value
"C[C@@H](CO)Oc1cc(Oc2nc3ccccc3s2)cc(C(=O)Nc2ccn(C)n2)c1 [Example 1, 3-(1,3-Benzothiazol-2-yloxy)-5-{[(1S)-2-hydroxy-1-methylethyl]oxy}-N-(1-methyl-1H-pyrazol-3-yl)benzamide]","activity in OGTT (percent reduction in glucose excursion, AUC)",Zucker obese fa/fa rats,50%
same,EC50,[1],88 nM
